Columns and labels:
Mus musculus [1] = test: Toxicity in Mus musculus (mouse) transplanted with mouse EAC cells assessed as effect on monocytes level at 75 mg/kg, ip measured on day 13 post tumor implantation (reference value: 1.4 +/- 0.24%); format: organism-based, Ehrlich; parameters: dose 75 mg/kg, route intraperitoneal; conditions: in vivo
Mus musculus [2] = test: Toxicity in Mus musculus (mouse) transplanted with mouse EAC cells assessed as effect on neutrophils level at 75 mg/kg, ip measured on day 13 post tumor implantation (reference value: 60.4 +/- 1.5%); format: organism-based, Ehrlich; parameters: dose 75 mg/kg, route intraperitoneal; conditions: in vivo
Mus musculus [3] = test: Toxicity in Mus musculus (mouse) transplanted with mouse EAC cells assessed as effect on lymphocytes level at 75 mg/kg, ip measured on day 13 post tumor implantation (reference value: 35.8 +/- 1.15%); format: organism-based, Ehrlich; parameters: dose 75 mg/kg, route intraperitoneal; conditions: in vivo
Mus musculus [4] = test: Toxicity in Mus musculus (mouse) transplanted with mouse EAC cells assessed as effect on WBC level measured per 10^3 cells at 75 mg/kg, ip on day 13 post tumor implantation (reference value: 19.49 +/- 0.26 mm3); format: organism-based, Ehrlich; parameters: dose 75 mg/kg, route intraperitoneal; conditions: in vivo
Mus musculus [5] = test: Toxicity in Mus musculus (mouse) transplanted with mouse EAC cells assessed as effect on RBC level at 75 mg/kg, ip measured on day 13 post tumor implantation (reference value: 3.95 +/- 0.32 million/mm3); format: organism-based, Ehrlich; parameters: dose 75 mg/kg, route intraperitoneal; conditions: in vivo
Mus musculus [6] = test: Toxicity in Mus musculus (mouse) transplanted with mouse EAC cells assessed as increase in hemoglobin level at 75 mg/kg, ip measured on day 13 post tumor implantation (reference value: 7.5 +/- 0.01 g%); format: organism-based, Ehrlich; parameters: dose 75 mg/kg, route intraperitoneal; conditions: in vivo
[7] = Antitumor activity against Mus musculus (mouse) EAC cells transplanted in mouse assessed as increase in life span at 75 mg/kg, ip relative to vehicle-treated control; format: functional, Ehrlich; conditions: route intraperitoneal
[8] = Antitumor activity against Mus musculus (mouse) EAC cells transplanted in mouse assessed as decrease in body weight at 75 mg/kg, ip measured up to 11 days relative to vehicle-treated control; format: functional, Ehrlich; parameters: scale not given: the % may be the effect or the level left; conditions: route intraperitoneal
Mus musculus [9] = test: Toxicity in Mus musculus (mouse) transplanted with mouse EAC cells assessed as increase in hemoglobin level at 20 mg/kg, ip measured on day 13 post tumor implantation (reference value: 7.5 +/- 0.01 g%); format: organism-based, Ehrlich; parameters: dose 20 mg/kg, route intraperitoneal; conditions: in vivo
Mus musculus [10] = test: Toxicity in Mus musculus (mouse) transplanted with mouse EAC cells assessed as effect on monocytes level at 20 mg/kg, ip measured on day 13 post tumor implantation (reference value: 1.4 +/- 0.24%); format: organism-based, Ehrlich; parameters: dose 20 mg/kg, route intraperitoneal; conditions: in vivo
Mus musculus [11] = test: Toxicity in Mus musculus (mouse) transplanted with mouse EAC cells assessed as effect on neutrophils level at 20 mg/kg, ip measured on day 13 post tumor implantation (reference value: 60.4 +/- 1.5%); format: organism-based, Ehrlich; parameters: dose 20 mg/kg, route intraperitoneal; conditions: in vivo
Mus musculus [12] = test: Toxicity in Mus musculus (mouse) transplanted with mouse EAC cells assessed as effect on lymphocytes level at 20 mg/kg, ip measured on day 13 post tumor implantation (reference value: 35.8 +/- 1.15%); format: organism-based, Ehrlich; parameters: dose 20 mg/kg, route intraperitoneal; conditions: in vivo
Mus musculus [13] = test: Toxicity in Mus musculus (mouse) transplanted with mouse EAC cells assessed as effect on WBC level measured per 10^3 cells at 20 mg/kg, ip on day 13 post tumor implantation (reference value: 19.49 +/- 0.26 mm3); format: organism-based, Ehrlich; parameters: dose 20 mg/kg, route intraperitoneal; conditions: in vivo
[14] = Antitumor activity against Mus musculus (mouse) EAC cells transplanted in mouse assessed as increase in life span at 20 mg/kg, ip relative to vehicle-treated control; format: functional, Ehrlich; conditions: route intraperitoneal
Mus musculus [15] = test: Toxicity in Mus musculus (mouse) transplanted with mouse EAC cells assessed as effect on RBC level at 20 mg/kg, ip measured on day 13 post tumor implantation (reference value: 3.95 +/- 0.32 million/mm3); format: organism-based, Ehrlich; parameters: dose 20 mg/kg, route intraperitoneal; conditions: in vivo

Row | Structure (SMILES) | Activity (Mus musculus [1]) [%] | Activity (Mus musculus [2]) [%] | Activity (Mus musculus [3]) [%] | Activity (Mus musculus [4]) | Activity (Mus musculus [5]) [million/mm3] | Activity (Mus musculus [6]) [g%] | Activity [7] [%] | Activity [8] [%] | Activity (Mus musculus [9]) [g%] | Activity (Mus musculus [10]) [%] | Activity (Mus musculus [11]) [%] | Activity (Mus musculus [12]) [%] | Activity (Mus musculus [13]) [mm3] | Activity [14] [%] | Activity (Mus musculus [15]) [million/mm3]
1 | Cc1cc(O)c(-c2csc(NC(=O)CN3CCN(C)CC3)n2)c(=O)o1 | 1.4 | 63.2 | 35.4 | 19.6 10^3 cells/mm3 | 5 | 10.64 | -1.04 | -1.007 | – | – | – | – | – | – | –
2 | COc1cc(C2SCC(=O)N2c2nc(-c3c(O)cc(C)oc3=O)cs2)cc(OC)c1OC (stereo unspecified) | 2 | 58.2 | 39.4 | 19.2 10^3 cells/mm3 | 17.78 | 10.48 | -1.04 | -1.047 | – | – | – | – | – | – | –
3 | Cc1cc(O)c(-c2csc(NC(=O)CN3CCN(c4ccc(F)cc4)CC3)n2)c(=O)o1 | 3 | 66 | 31 | 17.6 10^3 cells/mm3 | 17.29 | 11.96 | -39.58 | 48.32 | – | – | – | – | – | – | –
4 | Cc1cc(O)c(-c2csc(N3C(=O)CSC3c3cccc([N+](=O)[O-])c3)n2)c(=O)o1 (stereo unspecified) | 4 | 63.2 | 32 | 33.9 10^3 cells/mm3 | 19.07 | 11.35 | -23.95 | 33.5 | – | – | – | – | – | – | –
5 | Cc1cc(O)c(-c2csc(N3C(=O)CSC3c3ccc(Cl)cc3)n2)c(=O)o1 (stereo unspecified) | 3 | 52.2 | 44 | 18.2 10^3 cells/mm3 | 2.76 | 8.54 | 20.83 | 49.73 | – | – | – | – | – | – | –
6 | Cc1cc(O)c(-c2csc(N3C(=O)CSC3c3ccc(O)cc3)n2)c(=O)o1 (stereo unspecified) | 4.8 | 34 | 61 | 16.6 10^3 cells/mm3 | 5.63 | 13.08 | 34.37 | 61.78 | – | – | – | – | – | – | –
7 | COc1ccccc1N1CCN(CC(=O)Nc2nc(-c3c(O)cc(C)oc3=O)cs2)CC1 | 4.8 | 25 | 70 | 15.7 10^3 cells/mm3 | 4.12 | 12.52 | 27.08 | 58.11 | – | – | – | – | – | – | –
8 | O=c1[nH]cc(F)c(=O)[nH]1 [FLUOROURACIL] | – | – | – | – | – | – | – | – | 13.99 | 1.2 | 27.8 | 71 | 15.6 | 57.29 | 4.67
9 | Cc1cc(O)c(-c2csc(NC(=O)CN3CCN(C(=O)c4ccco4)CC3)n2)c(=O)o1 | 4.6 | 34 | 62 | 48.6 10^3 cells/mm3 | 6.28 | 13.21 | -12.5 | 46.59 | – | – | – | – | – | – | –

From ChEMBL document CHEMBL3045268, “Synthesis, anticancer, and molecular docking studies of pyranone derivatives” (Med Chem Res, 2013)
